Reference: paper PMC6114104 (International Journal for Parasitology: Drugs and Drug …, 2018)
Structures can show the parent of a compound that is named as a salt. Where two headings read alike, the source gives them in different places. Marks after values point to notes of the source that are not given here.

Experiments:
[1] = tested on: S. neurona + GFP/FLUC parasites; assay: microbe, parasite or virus in culture; assay type: cell-based, Sarcocystis neurona; settings: for Effect on S. neurona growth reflected by increases in FLUC activity: 10 μM HTS, not confirmed with secondary screening
[2] = tested on: S. neurona + GFP/FLUC parasites; assay: Luciferase-based S. neurona growth inhibition, EC50 determination; settings: for EC50: Sarcocystis neurona; for TI (TC50/EC50): ratio of BT cell TC50 to S. neurona EC50
[3] = tested on: BT cells (bovine turbinate cells); settings: uninfected BT cells, 3 days; 100 μM maximum concentration tested
Cryptosporidium parvum = settings: ref Bessoff et al., 2013; cited from earlier work
T. gondii = settings: ref Dittmar et al., 2016; Wang et al., 2017; Bowden, unpublished data; cited from earlier work
P. falciparum = settings: PubChem BioAssay; ref Wang et al., 2017; cited from earlier work
[4] = horses, ref DiMaio Knych et al., 2011, cited from earlier work
S. neurona = settings: ref Gargala et al., 2009, cited from earlier work
S. neurona parasites = settings: ref Lindsay and Dubey, 1999; cited from earlier work
[5] = 96 h, read-out: EC50 in μM (95% CI)

Structure (SMILES) | EC50 [2, 5] | TI (TC50/EC50) [2] | TC50 [3] | other results
CCCSc1ccc2nc(NC(=O)OC)[nH]c2c1 [albendazole] | – | – | – | Effect on S. neurona growth reflected by increases in FLUC activity [1]: growth-enhancing
c1ccc2[nH]c(-c3cscn3)nc2c1 [thibendazole] | – | – | – | Effect on S. neurona growth reflected by increases in FLUC activity [1]: growth-enhancing
O=c1c(-c2ccccc2)c1-c1ccccc1 [Diphenylcyclopropenone] | 2.5 µM | 8 | 19 µM | –
Cl.O=C1[C@H]2CCCC[C@H]2C(=O)N1CCCCN1CCN(c2nsc3ccccc23)CC1 [Perospirone HCl] | – | 25 | 86 µM | –
COc1cc2nc(N3CCN(C(=O)c4ccco4)CC3)nc(N)c2cc1OC [Prazosin] | 6 µM | 8 | 45 µM | –
O=C(c1ccc(F)cc1)C1CCN(CCn2c(=S)[nH]c3ccccc3c2=O)CC1 [Altanserin] | 3.5 µM | 29 | – | TC50 in μM [3]: >100 ^a μM
O=c1[nH]cc(F)c(=O)[nH]1 [Fluorouracil] | 0.79 µM | 99 | 78 µM | Activity against Cryptosporidium parvum (Cryptosporidium parvum): active; Activity against T. gondii (T. gondii): active; Activity against P. falciparum (P. falciparum): active
COc1cc(NC(C)CCCN)c2ncccc2c1 (stereo not drawn) [Primaquine phosphate] | 2.2 µM | 21 | 47 µM | –
CCN(CC)C(=S)SSC(=S)N(CC)CC [Disulfiram] | 0.15 µM | – | 20 µM | –
CC(C)/N=c1\cc2n(-c3ccc(Cl)cc3)c3ccccc3nc-2cc1Nc1ccc(Cl)cc1 [Clofazimine] | 3.7 µM | 27 | >100 µM | –
O=C1CN(/N=C/c2ccc(-c3ccc([N+](=O)[O-])cc3)o2)C(O)=N1 [Dantrolene] | 0.065 µM | 800 | 52 µM | EC50 ([2]; read-out: EC50 for S. neurona inhibition in ng/ml): 21.9 ng/mL; Peak plasma concentration ([4]; 500 mg capsules, converted): 85.95 nM; Peak plasma concentration ([4]; 500 mg capsules): 28.9 ± 21.6 ng/mL; Peak plasma concentration ([4]; 500 mg paste, converted): 112.4 nM; Peak plasma concentration ([4]; 500 mg paste): 37.8 ± 12.8 ng/mL; Time of peak plasma concentration after administration ([4]; both formulations (capsules and paste)): 3.8 h
CN1CCCC(n2nc(Cc3ccc(Cl)cc3)c3ccccc3c2=O)CC1 (stereo not drawn) [Azelastine HCl] | 2.5 µM | 11 | 28 µM | –
Oc1c(Cl)cc(Cl)c(Cl)c1Cc1c(O)c(Cl)cc(Cl)c1Cl [Hexachlorophene] | 2.8 µM | 20 | 56 µM | –
OCCN1CCN(CCCN2c3ccccc3Sc3ccc(Cl)cc32)CC1 [Perphenazine] | 3.3 µM | 4 | 14 µM | –
C[C@H]1[C@H](OC(=O)CCC(=O)O)O[C@@H]2O[C@@]3(C)CC[C@H]4[C@H](C)CC[C@@H]1[C@@]24OO3 [Artesunate] | 3.3 µM | 30 | >100 µM | –
CN1CCN(CC/C=C2/c3ccccc3Sc3ccc(S(=O)(=O)N(C)C)cc32)CC1 [Thiothixene] | 6.3 µM | 5 | 30 µM | –
CC(=O)Oc1ccccc1C(=O)Nc1ncc([N+](=O)[O-])s1 [nitazoxanide] | ~12 µM | – | – | Reported mean 90% inhibitory activity against S. neurona, in μM (S. neurona; approximate conversion): approximately 6.2 μM; Reported mean 90% inhibitory activity against S. neurona (S. neurona): 1.9 mg/L
Oc1c(Cl)cc(Cl)c2cccnc12 [Chloroxine] | 2.5 µM | 6 | 16 µM | –
CCc1nc(N)nc(N)c1-c1ccc(Cl)cc1 [Pyrimethamine] | 3.9 µM | 26 | >100 µM | FLUC activity of treated parasites ([2]; 10 μM, measured every 2 days over 10-day incubation): severely diminished FLUC activity; EC50 ([2]; read-out: EC50 of pyrimethamine (HTS validation, Fig. 2B)): 3.22 µM
COc1cc(Cc2cnc(N)nc2N)cc(OC)c1OC [trimethoprim] | ~19 µM | – | – | Reported EC50 for S. neurona parasites in vitro (S. neurona parasites): 2.5 µg/mL; inhibition at 10 µM ([1]; Sarcocystis neurona, read-out: % inhibition of parasite growth in HTS): ≤ 80%
CCCCCCNC(=O)n1cc(F)c(=O)[nH]c1=O [Carmofur] | 0.73 µM | 137 | >100 µM | Activity against Cryptosporidium parvum (Cryptosporidium parvum): active; Activity against T. gondii (T. gondii): active; Activity against P. falciparum (P. falciparum): active
Cc1ccc(-c2nc3ccc(C)cn3c2CC(=O)N(C)C)cc1 [zolpidem tartrate] | – | – | – | Effect on S. neurona growth reflected by increases in FLUC activity [1]: growth-enhancing
